According to patent US20230381275A1, “MUSCULAR FUNCTION IMPROVING AGENT FOR SKELETAL MUSCLE OF WHICH FUNCTION IS DEGRADED DUE TO AGING” (OSAKA UNIVERSITY, priority 2020, published 2023):

Tests used:
[1] = test system: aging-accelerated model mice (SAMP10); experiment: Number of collisions on treadmill retest 12, 24 or 72 hours after local injection (Example 2); assay type: in vivo; conditions: SAMP10 36 weeks old, SV peptide total 40 ng into bilateral lower limb muscles, vs PBS control, FIG. 2
Method: In this example, SV peptide was administered to aging-accelerated model mice, and the recovery effect of muscle function after a certain period of time by the administration was confirmed.
Treadmill running was performed using aging-accelerated model mice (SAMP10 36 weeks old) under the same conditions as the first basic training of 35-week-old mice in Example 1, and SV peptide (total 40 ng) was injected into the bilateral lower limb muscles immediately after treadmill running (experimental group).
SV peptide was administered at the same site and dose as in the 35-week-old mice of Example 1. The number of collisions was evaluated by retesting treadmill running (18 m/min×90 min) at 12, 24, or 72 hours after local injection. In the control group, after treadmill running as in the experimental group, PBS was injected into the bilateral leg muscles instead of SV peptide, and the number of collisions on the treadmill was measured 12, 24, or 72 hours after the injection.

[2] = test system: aging-accelerated model mice; experiment: Endurance evaluation test on treadmill (Example 6); assay type: in vivo; conditions: SV group, SV peptide 2 μg/ml one dose every other week plus training
Method: (§1) In this example, the number of SV peptide doses and dosage in Example 4 was changed as shown in the following table, and exercise evaluation (endurance evaluation) was performed when SV peptide was continuously administered to aging-accelerated model mice. The conditions other than the number of SV peptide doses and dosage were the same as in Example 4.
(§2) Specifically, SV peptide was added to PBS to adjust to a concentration of 2 μg/ml for the injectable formulation, and localized to the bilateral lower limb muscles of each mouse anesthetized by inhalation with sevoflurane immediately after training on Friday every other week (even weeks) (SV group; one dose every other week).
The results of the endurance evaluation test are shown in FIG. 12 with a graph showing the mean running distance for the SV group (n=3) and the PBS group (n=4). A graph showing the difference between the mean running distance on the reference date (30 weeks old) and the mean running distance in each test is also shown in FIG. 13.

[3] = test system: aging-accelerated model mice; experiment: Endurance evaluation test on treadmill (Example 7); assay type: in vivo
Method: as §1, with “4 were” for “4 was”
as §2, with “20” for “2”, “once” for “on Friday”, “4 weeks (Friday)” for “other week (even weeks)”, “once” for “one dose”, “4 weeks).” for “other week).”
The results of the endurance evaluation test are shown in FIG. 14 with a graph showing the mean running distance for the SV group (n=6) and the PBS group (n=6). In addition, graphs showing the difference between the mean running distance on the reference date (30 weeks of age) and the mean running distance in each test are shown in FIGS. 15 and 16. […] In FIG. 16, the sum of the absolute difference in mean running distance relative to the reference date in the SV group and the absolute difference in mean running distance relative to the reference date in the PBS group is shown as the SV treatment effect.
The change over time in the mean maximum speed in each group is shown in FIG. 17, and graphs showing the difference between the mean maximum speed on the reference date and the mean maximum speed on each test date are shown in FIGS. 18 and 19. […] In FIG. 19, the sum of the absolute difference in mean running distance relative to the reference date in the SV group and the absolute difference in mean running distance relative to the reference date in the PBS group is shown as the SV treatment effect. The treatment effect of more than 0.15 m/sec was confirmed at 34 and 39-41 weeks.

[4] = test system: aging-accelerated model mice; experiment: Mean cross-sectional area of muscle fibers, HE staining, 51-week-old mice (Example 5); assay type: in vivo
Method: In this example, the training schedule and SV peptide administration concentration were changed from Example 4, and exercise evaluation (endurance evaluation) was conducted in aging-accelerated model mice when SV peptide was continuously administered. In addition, the cross-sectional area of muscle fibers (gastrocnemius (type I, type IIa, type IIb), extensor digitorum longus, and tibialis anterior muscles) were evaluated in mice that continued training and SV peptide administration until 51 weeks of age.
Aging-accelerated model mice were trained on a treadmill (MK-680; Muromachi Kikai Co., Ltd.) (18 m/min×90 min) and subsequent SV peptide administration was performed according to the schedule in the following table. 30 weeks of age and thereafter, training was performed continuously from Monday to Friday of each week. SV peptide was added to PBS to adjust to a concentration of 1 μg/ml for an injection formulation and localized to the bilateral leg muscles of each mouse anesthetized by inhalation with sevoflurane immediately after training on Tuesday and Friday (SV group; twice weekly administration). Exercise evaluations were performed every other Friday.
The gastrocnemius, extensor digitorum longus, and tibialis anterior muscles of the lower limbs were removed from 51-week-old aging-accelerated model mice, and after sections were prepared according to the standard method, the cross-sectional area of muscle fibers was measured by HE staining. […] The mean cross-sectional area of muscle fibers was also measured for each type of gastrocnemius muscle fiber (type I, type IIa, and type IIb). The mean cross-sectional area of muscle fibers was the mean of more than 50 fibers of each muscle fiber type.

fibroblasts = conditions: Non-Patent Documents 5, 6, Patent Documents 1-4; cited from earlier work
[5] = SV group vs PBS group, mean of more than 50 fibers, FIGS. 10 and 11
[6] = SV peptide 1 μg/ml plus training from 28 to 51 weeks, vs PBS group, FIG. 9

## SVVYGLR [SV peptide, peptide consisting of 7 amino acids (SVVYGLR]
[1]; 12 hours after local injection
  number of collisions during treadmill running: significantly reduced
[1]; 24 hours after local injection
  number of collisions during treadmill running: significantly reduced
[1]; 72 hours after local injection
  number of collisions during treadmill running: significantly reduced
[2]; after 49 weeks of age
  mean running distance: able to maintain the same mean running distance as the 30-week-old group
[2]; from 31 to 48 weeks of age, FIGS. 12 and 13
  mean running distance: increased significantly
[3]; FIG. 19, at 34 and 39-41 weeks, SV peptide 20 μg/ml once every 4 weeks plus training
  SV treatment effect (sum of absolute differences relative to the reference date of SV group and PBS group): more than 0.15 m/sec
[3]; SV group, 20 μg/ml once every 4 weeks plus training, at 41 weeks of age vs 30 weeks of age
  mean maximum speed: same mean maximum speed at 41 weeks of age as at 30 weeks of age
[3]; SV group, 20 μg/ml once every 4 weeks plus training, compared to the PBS group
  decrease in the mean maximum speed during the test period: able to suppress the decrease in the mean maximum speed
[3]; SV group, 20 μg/ml once every 4 weeks plus training, test from 31 to 36 weeks of age, FIG. 17
  mean speed (mean maximum speed): continuous increase
[3]; SV group, SV peptide 20 μg/ml once every 4 weeks plus training, at 41 weeks of age vs 30 weeks of age
  mean running distance: exceeded that of 30 weeks of age
[3]; SV group, SV peptide 20 μg/ml once every 4 weeks plus training, from 31 to 36 weeks of age, FIGS. 14-16
  mean running distance: increased significantly
[4]; [5]
  cross-sectional area of type I gastrocnemius muscle fibers: increased compared to the PBS group
  cross-sectional area of type IIa gastrocnemius muscle fibers: increased compared to the PBS group
  cross-sectional area of type IIb gastrocnemius muscle fibers: increased compared to the PBS group
[4]; [6]
  mean cross-sectional area of muscle fibers, extensor digitorum longus muscle: significantly larger than that in the PBS group
  mean cross-sectional area of muscle fibers, gastrocnemius muscle: significantly larger than that in the PBS group
  mean cross-sectional area of muscle fibers, tibialis anterior muscle: significantly larger than that in the PBS group
fibroblasts
  differentiation of fibroblasts to myofibroblasts: promoting
